Source: patent US8741641B2, “Methods for evaluating the stage of ovarian cancer or the survival rate of an ovarian cancer patient” (Fujifilm Corporation, priority 2007, dated 2014)

Experiments:
[1] = tested on: CTGF gene; assay: RT-PCR analysis of CTGF gene expression in ovarian cancer cell lines after treatment with demethylating reagent or deacetylation inhibitory agent; assay type: cell-based; details: ovarian cancer cell lines HNOA and RMG-II not expressing the CTGF gene
Procedure: D: Ovarian cancer cell lines (HNOA and […]) were treated (+) or not treated (−) with 5-aza-dCyd (5 μM) for 5 days or TSA (100 ng/ml) for 12 hours. The results of RT-PCR analysis on the CTGF gene in the ovarian cancer cell lines.
To examine the expression levels of the 7 above genes (the CTGF gene, the ENPP1 gene, the ENPP3 gene, the CRSP3 gene, the AKAP7 gene, the EPB41L2 gene, and the KIAA1913 gene), 24 types of ovarian cancer cell line, normal ovary, and a normal ovarian epithelial cell-derived immortalized cell line (OSE-2a) were subjected to reverse transcriptase (RT)-PCR. Specifically, a single-chain cDNA was synthesized from the RNA extracted from each cultured cell line using the SuperScript First-Strand Synthesis System (Invitrogen). Moreover, a glyceraldehyde-3-phosphate dehydrogenase (GAPDH) gene was used as a control. As a result, decreased expression levels of the CTGF gene, the ENPP1 gene, and the KIAA1913 gene were shown, compared with the case of normal ovary or OSE-2a cells (FIG. 1D), although chromosomal region 6q23.1-23.2 had not undergone homozygous deletion. This may be due to a mechanism other than genomic deletion, such as an epigenetic phenomenon in ovarian cancer cell lines. Moreover, in the above experiment, the ARG1 gene was not subjected to examination, since the gene is not expressed in the ovary according to the results of analyzing the gene expression database (ncbi.Nlm.nih.gov and http://www.lsbm.org/database/index.html).
To examine if suppressed CTGF gene expression is due to DNA methylation, ovarian cancer cell lines (HNOA and RMG-II) not expressing the CTGF gene were treated using 5 μM demethylating reagent 5-aza-dCyd for 5 days or using deacetylation inhibitory agent TSA (100 ng/ml) for 12 hours. RNAs were extracted from these cells and then CTGF gene expression was examined by RT-PCR (FIG. 1D).

[2] = tested on: CpG islands of the CTGF gene; assay: Demethylation of CpG islands of the CTGF gene in ovarian cancer cells cultured with demethylating reagent; assay type: cell-based; details: ovarian cancer cells cultured in the presence of the reagent

Row | Compound | CTGF gene expression (RT-PCR) ([1]; 100 ng/ml for 12 hours) | CTGF gene expression (RT-PCR) ([1]; 5 μM for 5 days) | CTGF gene expression (RT-PCR) ([1]; 5 μM for 5 days, listed as 5-azadeoxycytidine) | demethylation of CpG islands [2]
1 | CC(/C=C/C(=O)NO)=C\[C@@H](C)C(=O)c1ccc(N(C)C)cc1 [TSA] | no differences |  |  | 
2 | Nc1ncn([C@H]2C[C@H](O)[C@@H](CO)O2)c(=O)n1 [5-aza-dCyd, 5-azadeoxycytidine] |  | recovers its gene expression | recover the expression level of the CTGF gene | possible to demethylate such CpG islands
